Reference: US20030204875A1, “Novel agrobacterium-mediated plant transformation method” (priority 1999, published 2003)
Like-named read-outs stand apart in the source and are kept apart here.

Legend:
[1] = system: T-DNA transfer to BMS cells
Description: Transformation of BMS suspension cells was performed following the protocol described in Table 8. For transforming kalanchoe leaves, a suspension of cells from Agrobacterium strain A281 was applied after performing mechanical wounding as described in White and Nester. The Agrobacterium strain, A136 harboring a binary vector pMON25457 (FIG. 3) was used as a negative control.
The efficiency of T-DNA delivery to BMS cells was measured by transient GUS expression post co-cultivtion as well as by staining GUS positive colonies appearing on a single piece of filter 4 weeks after co-culture.
During pre-induction, AgNO3 was added at two different levels (20 ? M and 40 ? M final concentration) to the pre-induction medium. The final optical density prior to the induction was adjusted to A660 (OD 0.2). Agrobacterium cells were pre-induced for 15 hours. Measurement of the optical density (measure of growth) was taken at the end of pre-induction, just prior to transformation. Agrobacterium cells pre-induced in the absence of AgNO3 were used as a control.

[2] = system: Agrobacterium tumefaciens strain C58 (ABI)
Description: Disarmed Agrobacterium tumefaciens strain C58 (ABI) harboring binary vector pMON18365 (FIG. 2) was used in this Example. The Agrobacterium strain was pre-induced as described previously.
Three mls of pre-induced Agrobacterium suspension (A660 OD 1.0) was added to a 6-well tissue culture plate. After adding the explants, the plant tissues and Agrobacterium suspension cells were subjected to vacuum infiltration for three hours. After the three hour vacuum infiltration, the Agrobacterium suspension was removed and the plant tissues were placed on semi-solid medium containing 10 ? M AgNO3 (final concentration). All the tissues were incubated for three days in the dark.
All explants were transferred to the medium without the growth inhibiting agent and evaluation of Agrobacterium growth was observed seven days post-transfer.

[3] = system: T-DNA transfer to immature embryos of genotype H99×A188; settings: for Average number of GUS foci/explant: three days
Description: (§1) Immature embryos of genotype H99×A188 were isolated as described above. The disarmed Agrobacterium strain ABI harboring binary vector pMON18365 (FIG. 2) was used. The Agrobacterium strain was pre-induced as described above and three mls of pre-induced Agrobacterium suspension (A660 OD 4.0) was added to a 6-well tissue culture plate as described earlier. The inoculation was performed for three hours under vacuum. The Agrobacterium suspension was removed and embryos were placed on respective semi-solid medium containing various concentrations of AgNO3 (0, 10, 20, 40, 60 ? M AgNO3 final concentration). All the tissues were incubated for three days in the dark. The efficiency of T-DNA delivery was estimated by a transient GUS analysis performed three days after co-culture by counting the number of GUS foci per immature embryo explant (Table 21). Efficiency of culture response was determined by transferring the embryos to a delay medium (D medium, supplemented with 500 mg/L Carbenicillin) and taking observation 2 weeks post transfer.

[4] = system: immature embryos of genotype H99×A188; settings: observed 2 weeks post transfer to delay medium
Description: as §1

corn immature embryos = system: corn immature embryos
Description: (§2) The following transformation protocols included the following parameters: use of immature embryos that were pre-cultured for less than 24 h; a bacterial inoculation density >2.0 at OD660, a co-culture duration of from one to three days, the use of a higher concentration of auxin or different type of auxin/combination of growth regulators than that required during normal tissue culture, a delay period 3-7d following co-culture (with out selection pressure), no sub-culture of the original explant, a step-wise increase or decrease, depending on the crop and selection scheme and a transformation duration between 9-12 weeks.

rice immature embryos = settings: OD660 2.0 plus 20 mM AgNO3, co-culture one day
Description: as §2

wheat immature embryos = settings: OD660 4.0 plus 20 mM AgNO3, co-culture three days
Description: as §2

[5] = system: immature embryos of genotype (H99×Pa 91)A188
Description: Immature embryos of genotype (H99×Pa 91)A188 were isolated as described. […] The Agrobacterium strain was pre-induced as described and three mls of pre-induced Agrobacterium suspension (A660 OD 0.5) supplemented with 20 ? M AgNO3 was added to a 6-well tissue culture plate as described above. Inoculation was performed for 15 minutes. The Agrobacterium suspension was removed and embryos were placed on semi-solid co-culture medium containing 20 ? M AgNO3 (final concentration). All the tissues were incubated for three days in the dark. […] Control embryos were cultured in the absence of AgNO3 in all steps of the transformation process. Transformation efficiency was calculated based on the number of embryos producing paromomycin resistant calli.

[6] = system: Agrobacterium (strain ABI); assay type: cell-based; parameters: key: “No Growth” indicates there was not an increase in cell density indicating bacteriocidal or bacteriostatic property of the chemical; “Slow Growth” indicates that a slight increase in cell density was noticed and a higher level may be lethal; “Growth” indicates no effect on bacterial growth at the concentration used relative to growth in control medium; settings: control, AgNO3 20 μM; twenty-four hours
Description: Each of the chemicals listed in Table 26 was resuspended in MS-BMS media and added (final concentration 50 μM) to a 50 ml overnight culture of Agrobacterium (strain ABI). Twenty-four hours after inoculation the effect of the chemicals on the growth of Agrobacterium was recorded. A known bacteriocidal compound, Carbenicillin at a final concentration of 50 mg/L and AgNO3 (20 μM) were used as controls.

[7] = EHA 101:pMON25457 pre-induced with 20 μM AgNO3
[8] = EHA 101:pMON25457 pre-induced with 40 μM AgNO3
[9] = 10 μM AgNO3 in co-culture medium
[10] = 20 μM AgNO3 in co-culture medium
[11] = 40 μM AgNO3 in co-culture medium
[12] = 60 μM AgNO3 in co-culture medium

SMILES: O=[N+]([O-])[O-].[Ag+] [AgNO3, silver nitrate]
- Stable transformants obtained ([1]; Agrobacterium cells treated with AgNO3 during pre-induction): no stable transformants
- Average # of GUS positive colonies/filter paper [1, 7]: 0
- Results (T-DNA transfer) [1, 7]: no transfer
- Average # of GUS positive colonies/filter paper [1, 8]: 0
- Results (T-DNA transfer) [1, 8]: no transfer
- Growth of Agrobacterium cells surrounding explants ([2]; co-culture medium with 10 μM AgNO3, three days): No growth
- Growth of Agrobacterium cells surrounding explants after transfer to medium without the agent ([2]; seven days post-transfer, after three days on 10 μM AgNO3): Profuse growth
- Effect on frequency of T-DNA transfer and tissue survival ([3]; 10 μM AgNO3 during co-culture): positive effect
- Average number of GUS foci/explant [3, 9]: 63
- Average number of GUS foci/explant [3, 10]: 26
- Average number of GUS foci/explant [3, 11]: 28
- Effect on T-DNA transfer ([3]; 60 μM AgNO3 during co-culture): inhibitory
- Average number of GUS foci/explant [3, 12]: 12
- % of immature embryos responding to culture [4, 9]: 42%
- % of immature embryos responding to culture [4, 10]: 64%
- % of immature embryos responding to culture [4, 11]: 62%
- % of immature embryos responding to culture [4, 12]: 60%
- Transformation (%) (corn immature embryos; OD660 2.0 plus 20 μM AgNO3, co-culture three days): 18%
- Transformation (%) (corn immature embryos; OD660 4.0 plus 20 μM AgNO3, co-culture three days): 8%
- Transformation (%) (rice immature embryos): 23%
- Transformation (%) (wheat immature embryos): 4%
- % Transformation ([5]; 5d 20 μM AgNO3: present during inoculation and 5 day delay, not during 3 day co-culture): 7.8 (4/51) %
- % Transformation ([5]; 8d 20 μM AgNO3: present during inoculation, 3 day co-culture and 5 day delay): 9.0 (5/55) %
- Effect (on growth of Agrobacterium) [6]: No Growth
